Consider 21 compounds from BindingDB's records for doi:10.1016/s0960-894x(99)00360-1 (Parke-Davis Pharmaceutical Research, 1999).

For this test, the target named is T1, Dimer of Gag-Pol polyprotein [489-587] (Human immunodeficiency virus 1, UniProt P12497).
T1 construct: 489-587
The test is described as follows: Protease Inhibition Assay. Particulars: pH 6.2; 37 °C. As to the method: For determination of IC50 values, HIV-1 protease was added to assay buffer containing inhibitor and the substrate (H-His-Lys-Ala-Arg-Val-Leu- (p-NO2) Phe-Glu-Ala-norleucine-Ser-NH2). The Leu- (p-NO2) Phe bond of the substrate was cleaved by the enzyme, and the substrate and products were separated by reversed-phase HPLC. Absorbance was measured at 220 nm, peak areas were determined, and percentage conversion to product was calculated.

Molecules are shown by their SMILES.

Usually IC50 stands for the concentration needed to halve the response being measured. A lower IC50 goes with higher potency. `CCNS(=O)(=O)Oc1cc(C(C)(C)C)c(SC2C(=O)CC(CCc3ccccc3)(C(C)C)OC2=O)cc1C` (stereo unspecified) came in with a 50% inhibitory concentration (IC50) of 8.9 nM.

For the compound `CCNS(=O)(=O)Oc1cc(C(C)(C)C)c(SC2C(=O)CC(CCc3ccc(O)cc3)(C3CCCCC3)OC2=O)cc1C` (stereo unspecified) [5-tert-butyl-4-({6-cyclohexyl-4-hydroxy-6-[2-(4-hydroxyphenyl)ethyl]-2-oxo-5,6-dihydro-2H-pyran-3-yl}sulfanyl)-2-methylphenyl N-ethylsulfamate], 4.8 nM corresponded to half-maximal inhibition (IC50).

Compound `Cc1cc(SC2C(=O)CC(C)(CCc3ccc(O)cc3)OC2=O)c(C(C)(C)C)cc1OS(N)(=O)=O` (stereo unspecified) [[5-tert-butyl-4-({4-hydroxy-6-[2-(4-hydroxyphenyl)ethyl]-6-methyl-2-oxo-5,6-dihydro-2H-pyran-3-yl}sulfanyl)-2-methylphenyl] sulfamate] gave an IC50 of 1.8 nM.

Compound `Cc1cc(SC2C(=O)CC(CCc3ccc(N)cc3)(C(C)C)OC2=O)c(C(C)(C)C)cc1OS(=O)(=O)N1CCN(C)CC1` (stereo unspecified) [4-({6-[2-(4-aminophenyl)ethyl]-4-hydroxy-2-oxo-6-(propan-2-yl)-5,6-dihydro-2H-pyran-3-yl}sulfanyl)-5-tert-butyl-2-methylphenyl 4-methylpiperazine-1-sulfonate] came in with an IC50 of 1 nM.

For the compound `Cc1cc(SC2C(=O)CC(CCc3ccc(O)cc3)(C3CCCCC3)OC2=O)c(C(C)(C)C)cc1OS(=O)(=O)N(C)C` (stereo unspecified) [5-tert-butyl-4-({6-cyclohexyl-4-hydroxy-6-[2-(4-hydroxyphenyl)ethyl]-2-oxo-5,6-dihydro-2H-pyran-3-yl}sulfanyl)-2-methylphenyl N,N-dimethylsulfamate], the IC50 worked out at 20 nM.

Take `Cc1cc(SC2C(=O)CC(CCc3ccccc3)(C(C)C)OC2=O)c(C(C)(C)C)cc1OS(=O)(=O)N1CCN(C)CC1` (stereo unspecified) [5-tert-butyl-4-{[4-hydroxy-2-oxo-6-(2-phenylethyl)-6-(propan-2-yl)-5,6-dihydro-2H-pyran-3-yl]sulfanyl}-2-methylphenyl 4-methylpiperazine-1-sulfonate]: the concentration for half-maximal inhibition (IC50) turned out to be 3.9 nM. Against the preceding compound, the IC50 is about 5.1-fold lower.

For the compound `Cc1cc(SC2C(=O)CC(CCc3ccc(O)cc3)(C3CCCCC3)OC2=O)c(C(C)(C)C)cc1OS(=O)(=O)N1CCN(C)CC1` (stereo unspecified) [5-tert-butyl-4-({6-cyclohexyl-4-hydroxy-6-[2-(4-hydroxyphenyl)ethyl]-2-oxo-5,6-dihydro-2H-pyran-3-yl}sulfanyl)-2-methylphenyl 4-methylpiperazine-1-sulfonate], the IC50 amounted to 9.7 nM.

With `Cc1cc(SC2C(=O)CC(CCc3ccc(O)cc3)(C(C)C)OC2=O)c(C(C)(C)C)cc1OS(=O)(=O)N1CCN(C)CC1` (stereo unspecified) [5-tert-butyl-4-({4-hydroxy-6-[2-(4-hydroxyphenyl)ethyl]-2-oxo-6-(propan-2-yl)-5,6-dihydro-2H-pyran-3-yl}sulfanyl)-2-methylphenyl 4-methylpiperazine-1-sulfonate], the IC50 was 3.1 nM.

For `CCNS(=O)(=O)Oc1cc(C(C)(C)C)c(SC2C(=O)CC(CCc3ccc(N)cc3)(C(C)C)OC2=O)cc1C` (stereo unspecified) [4-({6-[2-(4-aminophenyl)ethyl]-4-hydroxy-2-oxo-6-(propan-2-yl)-5,6-dihydro-2H-pyran-3-yl}sulfanyl)-5-tert-butyl-2-methylphenyl N-ethylsulfamate], the IC50 worked out at 4.3 nM.

`Cc1cc(SC2C(=O)CC(C)(CCc3ccc(O)cc3)OC2=O)c(C(C)(C)C)cc1OS(=O)(=O)N(C)C` (stereo unspecified) [5-tert-butyl-4-({4-hydroxy-6-[2-(4-hydroxyphenyl)ethyl]-6-methyl-2-oxo-5,6-dihydro-2H-pyran-3-yl}sulfanyl)-2-methylphenyl N,N-dimethylsulfamate]: the IC50 is 1.6 nM.

The compound `Cc1cc(SC2C(=O)CC(CCc3ccc(O)cc3)(C(C)C)OC2=O)c(C(C)(C)C)cc1OS(=O)(=O)N(C)C` (stereo unspecified) [6-Alkyl-5,6-Dihydropyran-2-one 22] registered an IC50 of 3.4 nM.

The compound `CCCNS(=O)(=O)Oc1cc(C(C)(C)C)c(SC2C(=O)CC(CCc3ccc(O)cc3)(C(C)C)OC2=O)cc1C` (stereo unspecified) [5-tert-butyl-4-({4-hydroxy-6-[2-(4-hydroxyphenyl)ethyl]-2-oxo-6-(propan-2-yl)-5,6-dihydro-2H-pyran-3-yl}sulfanyl)-2-methylphenyl N-propylsulfamate] came in with a half-inhibitory concentration (IC50) of 3 nM.

`Cc1cc(SC2C(=O)CC(CCc3ccc(O)cc3)(C(C)C)OC2=O)c(C(C)(C)C)cc1OS(=O)(=O)N1CCOCC1` (stereo unspecified) [5-tert-butyl-4-({4-hydroxy-6-[2-(4-hydroxyphenyl)ethyl]-2-oxo-6-(propan-2-yl)-5,6-dihydro-2H-pyran-3-yl}sulfanyl)-2-methylphenyl morpholine-4-sulfonate] returned a half-maximal inhibitory concentration (IC50) of 2.6 nM.

`CCNS(=O)(=O)Oc1cc(C(C)(C)C)c(SC2C(=O)CC(CCc3ccc(O)cc3)(C(C)C)OC2=O)cc1C` (stereo unspecified) [6-Alkyl-5,6-Dihydropyran-2-one 20] returned an IC50 of 4.9 nM.

For the compound `CCNS(=O)(=O)Oc1cc(C(C)(C)C)c(SC2C(=O)CC(CCc3ccc(O)cc3)(c3ccccc3)OC2=O)cc1C` (stereo unspecified) [5-tert-butyl-4-({4-hydroxy-6-[2-(4-hydroxyphenyl)ethyl]-2-oxo-6-phenyl-5,6-dihydro-2H-pyran-3-yl}sulfanyl)-2-methylphenyl N-ethylsulfamate], half-maximal inhibition (IC50) was put at 26 nM. Compared with the last compound, the IC50 is about 5.3-fold higher.

`CCCNS(=O)(=O)Oc1cc(C(C)(C)C)c(SC2C(=O)CC(C)(CCc3ccc(O)cc3)OC2=O)cc1C` (stereo unspecified) [5-tert-butyl-4-({4-hydroxy-6-[2-(4-hydroxyphenyl)ethyl]-6-methyl-2-oxo-5,6-dihydro-2H-pyran-3-yl}sulfanyl)-2-methylphenyl N-propylsulfamate] showed a half-inhibitory concentration (IC50) of 6.2 nM.

In the case of `Cc1cc(SC2C(=O)CC(C)(CCc3ccc(O)cc3)OC2=O)c(C(C)(C)C)cc1OS(=O)(=O)N1CCN(C)CC1` (stereo unspecified) [5-tert-butyl-4-({4-hydroxy-6-[2-(4-hydroxyphenyl)ethyl]-6-methyl-2-oxo-5,6-dihydro-2H-pyran-3-yl}sulfanyl)-2-methylphenyl 4-methylpiperazine-1-sulfonate], the IC50 stood at 7.1 nM.

On to `CCNS(=O)(=O)Oc1cc(C(C)(C)C)c(SC2C(=O)CC(C)(CCc3ccc(O)cc3)OC2=O)cc1C` (stereo unspecified) [5-tert-butyl-4-({4-hydroxy-6-[2-(4-hydroxyphenyl)ethyl]-6-methyl-2-oxo-5,6-dihydro-2H-pyran-3-yl}sulfanyl)-2-methylphenyl N-ethylsulfamate], for which the concentration for half-maximal inhibition (IC50) stood at 2.3 nM.

`CNS(=O)(=O)Oc1cc(C(C)(C)C)c(SC2C(=O)CC(CCc3ccc(O)cc3)(C(C)C)OC2=O)cc1C` (stereo unspecified) [5-tert-butyl-4-({4-hydroxy-6-[2-(4-hydroxyphenyl)ethyl]-2-oxo-6-(propan-2-yl)-5,6-dihydro-2H-pyran-3-yl}sulfanyl)-2-methylphenyl N-methylsulfamate] had an IC50 of 1.2 nM.

Consider `Cc1cc(SC2C(=O)CC(C)(CCc3ccc(O)cc3)OC2=O)c(C(C)(C)C)cc1O` (stereo unspecified) [6-Alkyl-5,6-Dihydropyran-2-one 13], for which half-maximal inhibition (IC50) was put at 6.5 nM. This IC50 is about 5.4-fold higher than that of the compound before.

For `Cc1cc(SC2C(=O)CC(CCc3ccc(N)cc3)(C(C)C)OC2=O)c(C(C)(C)C)cc1OS(=O)(=O)N(C)C` (stereo unspecified) [4-({6-[2-(4-aminophenyl)ethyl]-4-hydroxy-2-oxo-6-(propan-2-yl)-5,6-dihydro-2H-pyran-3-yl}sulfanyl)-5-tert-butyl-2-methylphenyl N,N-dimethylsulfamate], the midpoint of inhibition, the IC50, lay at 3.9 nM. This IC50 is about 1.7-fold lower than that of the compound before.
